Reference: US9309242B2, “Substituted pyrido[2,3-b]pyrazines as FGFR kinase inhibitors” (priority 2011, dated 2016)

Legend:
[1] = target: FGFR1 (h) (Homo sapiens, UniProt P11362); test: FGFR1 (enzymatic assay), TR-FRET; format: biochemical; details: read-out: FGFR 1 pIC50 (converted)
[2] = target: FGFR2 (h) (Homo sapiens, UniProt P21802); test: FGFR2 (enzymatic assay), TR-FRET; format: biochemical; details: enzymatic assay; read-out: FGFR 2 pIC50 (converted)
Summary of the method: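 At low ATP (0.4 μM), enzyme activity of human FGFR2 (150 ng/ml) toward biotinylated Flt3 substrate (500 nM) was followed with test compound present. Reactions ran in 50 mM HEPES pH 7.5, 6 mM MnCl2, 1 mM DTT, 0.1 mM Na3VO4, 0.01% Triton-X-100, 1% DMSO.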

[3] = target: FGFR3 (h) (Homo sapiens, UniProt P22607); test: FGFR3 (enzymatic assay), TR-FRET; format: biochemical; details: read-out: FGFR 3 pIC50 (converted)
Sequence of FGFR3 (h) (P22607 23-806): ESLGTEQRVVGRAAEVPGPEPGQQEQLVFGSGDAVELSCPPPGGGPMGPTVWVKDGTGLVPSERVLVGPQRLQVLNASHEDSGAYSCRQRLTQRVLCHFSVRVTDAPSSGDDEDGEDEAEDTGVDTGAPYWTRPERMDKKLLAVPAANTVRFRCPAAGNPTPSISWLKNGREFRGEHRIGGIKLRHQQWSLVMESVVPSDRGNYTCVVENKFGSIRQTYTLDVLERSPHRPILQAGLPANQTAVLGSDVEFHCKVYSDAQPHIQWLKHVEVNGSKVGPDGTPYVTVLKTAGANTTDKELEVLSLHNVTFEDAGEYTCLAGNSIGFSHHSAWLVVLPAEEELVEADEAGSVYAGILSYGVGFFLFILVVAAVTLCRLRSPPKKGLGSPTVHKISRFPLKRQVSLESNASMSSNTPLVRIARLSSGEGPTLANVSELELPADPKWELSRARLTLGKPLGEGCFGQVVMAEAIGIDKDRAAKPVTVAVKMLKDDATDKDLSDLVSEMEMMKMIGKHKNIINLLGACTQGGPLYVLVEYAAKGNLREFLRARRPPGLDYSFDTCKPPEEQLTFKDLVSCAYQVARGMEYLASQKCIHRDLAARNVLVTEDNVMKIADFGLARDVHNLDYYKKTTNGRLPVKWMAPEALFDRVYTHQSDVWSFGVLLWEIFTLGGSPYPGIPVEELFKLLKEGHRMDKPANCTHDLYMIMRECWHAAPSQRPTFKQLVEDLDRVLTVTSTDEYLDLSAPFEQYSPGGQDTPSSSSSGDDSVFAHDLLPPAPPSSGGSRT
Excerpt: Time-Resolved Fluorescence Resonance Energy Transfer (TR-FRET) signal (ex340 nm.

[4] = target: FGFR4 (h) (Homo sapiens, UniProt P22455); test: FGFR4 (enzymatic assay), TR-FRET; format: biochemical; details: FGFR 4 pIC50, enzymatic assay
Sequence of FGFR4 (h) (P22455 22-802): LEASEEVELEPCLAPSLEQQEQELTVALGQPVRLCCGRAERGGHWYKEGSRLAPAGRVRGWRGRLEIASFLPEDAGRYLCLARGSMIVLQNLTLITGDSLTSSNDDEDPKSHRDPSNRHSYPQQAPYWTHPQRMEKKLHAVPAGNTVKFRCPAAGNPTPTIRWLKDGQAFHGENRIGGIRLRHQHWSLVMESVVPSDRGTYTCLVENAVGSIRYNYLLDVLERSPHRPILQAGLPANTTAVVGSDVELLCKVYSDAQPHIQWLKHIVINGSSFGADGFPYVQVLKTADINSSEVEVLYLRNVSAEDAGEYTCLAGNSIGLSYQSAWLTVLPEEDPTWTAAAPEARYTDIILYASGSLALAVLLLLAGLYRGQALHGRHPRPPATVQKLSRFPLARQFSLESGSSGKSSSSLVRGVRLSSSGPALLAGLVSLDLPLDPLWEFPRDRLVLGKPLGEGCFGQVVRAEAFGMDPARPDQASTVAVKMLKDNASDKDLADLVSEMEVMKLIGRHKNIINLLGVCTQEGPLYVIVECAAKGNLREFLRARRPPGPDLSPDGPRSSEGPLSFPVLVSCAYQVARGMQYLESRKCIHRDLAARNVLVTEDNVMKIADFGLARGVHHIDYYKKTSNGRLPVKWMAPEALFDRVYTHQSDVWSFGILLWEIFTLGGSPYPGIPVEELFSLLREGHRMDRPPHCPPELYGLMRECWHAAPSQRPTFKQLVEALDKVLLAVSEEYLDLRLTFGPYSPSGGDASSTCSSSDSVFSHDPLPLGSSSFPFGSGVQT

[5] = target: KDR (h) (Homo sapiens, UniProt P35968); test: KDR (VEGFR2) (enzymatic assay), TR-FRET; format: biochemical; details: read-out: VEGFR 2 (KDR) pIC50 (converted)
Summary of the method: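 Low-ATP (3 μM) TR-FRET kinase assay using 500 nM Btn-Flt3 peptide and 150 ng/ml enzyme, run 2 h at room temperature with 6 mM MnCl2 and 0.1 mM Na3VO4. Signal from Eu-anti-P-Tyr/SA-XL-665 is recorded in RFU.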

[6] = target: T1, Ba/F3-FGFR1-transfected cells (Homo sapiens, UniProt P11362); test: Ba/F3-FGFR1 (minus IL3) cellular proliferation assay, Alamar Blue; format: cell-based
T1 construct: BAF3-FGFR1 (MIN IL3) pIC50; other: minus IL3
T1 sequence (P11362 whole entry, change not shown): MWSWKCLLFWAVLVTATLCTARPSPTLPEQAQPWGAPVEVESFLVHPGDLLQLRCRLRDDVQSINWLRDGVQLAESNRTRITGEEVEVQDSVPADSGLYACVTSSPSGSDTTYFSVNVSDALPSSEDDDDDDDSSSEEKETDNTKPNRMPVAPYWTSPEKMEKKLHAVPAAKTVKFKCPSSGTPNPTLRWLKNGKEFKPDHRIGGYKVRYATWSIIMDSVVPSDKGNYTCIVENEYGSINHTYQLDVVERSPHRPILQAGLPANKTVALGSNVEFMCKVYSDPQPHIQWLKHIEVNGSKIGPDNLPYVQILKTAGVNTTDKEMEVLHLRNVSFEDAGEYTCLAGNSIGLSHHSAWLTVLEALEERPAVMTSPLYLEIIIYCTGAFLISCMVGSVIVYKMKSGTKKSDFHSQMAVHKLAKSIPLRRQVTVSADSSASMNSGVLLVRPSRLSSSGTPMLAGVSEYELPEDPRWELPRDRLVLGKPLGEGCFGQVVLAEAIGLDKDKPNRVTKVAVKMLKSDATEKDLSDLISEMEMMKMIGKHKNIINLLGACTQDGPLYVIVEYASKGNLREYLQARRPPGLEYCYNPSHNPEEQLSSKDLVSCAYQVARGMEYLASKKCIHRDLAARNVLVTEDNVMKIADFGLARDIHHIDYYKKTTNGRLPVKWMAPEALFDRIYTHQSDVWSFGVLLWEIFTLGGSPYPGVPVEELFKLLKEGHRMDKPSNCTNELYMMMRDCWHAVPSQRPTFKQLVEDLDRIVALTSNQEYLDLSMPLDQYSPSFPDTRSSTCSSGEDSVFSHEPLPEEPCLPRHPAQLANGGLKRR
Summary of the method: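 Compound is dispensed first, then FGFR1-transfected Ba/F3 cells are added at 20000 per well in phenol red-free RPMI-1640 containing 10% FBS. After 24 h at 37 °C, Alamar Blue is added for 4 h and fluorescence is measured at 540/590 nm.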

[7] = test system: Ba/F3-FGFR1-transfected cells; test: Ba/F3-FGFR1 (plus IL3) cellular proliferation assay, counterscreen with 10 ng/ml murine IL3; format: cell-based; details: plus IL3 (10 ng/ml murine IL3, counterscreen); read-out: BAF3-FGFR1 (PLUS IL3) pIC50 (converted)
Summary of the method: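 Proliferation read-out: resazurin-based Alamar Blue fluorescence (540/590 nm) after 4 h, following 24 h compound treatment of 20000 Ba/F3-FGFR1 cells per well in 10% FBS RPMI at 37° C. IL3 counterscreen used the same protocol plus 10 ng/ml murine IL3.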

[8] = target: T2, Ba/F3-FGFR3-transfected cells (Homo sapiens, UniProt P22607); test: Ba/F3-FGFR3 (minus IL3) cellular proliferation assay, Alamar Blue; format: cell-based
T2 construct: BAF3-FGFR3 (MIN IL3) pIC50; other: minus IL3
T2 sequence (P22607 whole entry, change not shown): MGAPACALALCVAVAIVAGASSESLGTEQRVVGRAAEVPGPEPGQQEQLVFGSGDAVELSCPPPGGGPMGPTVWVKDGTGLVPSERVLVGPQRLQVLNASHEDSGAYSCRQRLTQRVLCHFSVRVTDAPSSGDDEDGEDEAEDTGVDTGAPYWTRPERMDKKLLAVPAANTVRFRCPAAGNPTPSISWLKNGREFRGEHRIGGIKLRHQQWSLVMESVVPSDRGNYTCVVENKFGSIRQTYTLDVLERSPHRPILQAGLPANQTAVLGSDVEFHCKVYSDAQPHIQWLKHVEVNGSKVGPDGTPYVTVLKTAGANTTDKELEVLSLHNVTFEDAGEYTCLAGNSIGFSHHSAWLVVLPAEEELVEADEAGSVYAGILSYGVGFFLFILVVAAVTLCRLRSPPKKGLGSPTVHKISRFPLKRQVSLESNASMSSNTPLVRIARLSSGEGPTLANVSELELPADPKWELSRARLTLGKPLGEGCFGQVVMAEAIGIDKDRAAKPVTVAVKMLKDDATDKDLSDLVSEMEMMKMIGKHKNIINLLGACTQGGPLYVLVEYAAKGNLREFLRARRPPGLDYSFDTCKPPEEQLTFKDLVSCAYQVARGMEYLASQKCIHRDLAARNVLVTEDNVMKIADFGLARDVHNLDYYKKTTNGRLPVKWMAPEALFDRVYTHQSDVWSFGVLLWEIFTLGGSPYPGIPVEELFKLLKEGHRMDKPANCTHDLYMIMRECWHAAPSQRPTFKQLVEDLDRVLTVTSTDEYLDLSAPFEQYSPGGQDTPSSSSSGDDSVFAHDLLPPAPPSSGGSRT
Summary of the method: (§1)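 Compound dilutions were dispensed first, then 20000 FGFR3-transfected Ba/F3 cells per well in serum-containing RPMI-1640 were added. After 24 h incubation at 37° C, Alamar Blue was applied for 4 h before relative fluorescence units were recorded. In the minus-IL3 format cells grow without cytokine; the other format contains 10 ng/ml murine IL3.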

[9] = test system: Ba/F3-FGFR3-transfected cells; test: Ba/F3-FGFR3 (plus IL3) cellular proliferation assay, counterscreen with 10 ng/ml murine IL3; format: cell-based; details: plus IL3 (10 ng/ml murine IL3, counterscreen); read-out: BAF3-FGFR3 (PLUS IL3) pIC50 (converted)
Summary of the method: as §1

[10] = target: Ba/F3-FGFR4-transfected cells (Homo sapiens, UniProt P22455); test: Ba/F3-FGFR4 cellular proliferation assay, Alamar Blue; format: cell-based
Summary of the method: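 Here, cells seeded at 20000 per well were treated 24 hours with compound, then given a 4-hour Alamar Blue incubation at 37° C before RFU measurement at ex. 540 nm and em. 590 nm.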

Sequence of FGFR1 (h) (P11362 22-822): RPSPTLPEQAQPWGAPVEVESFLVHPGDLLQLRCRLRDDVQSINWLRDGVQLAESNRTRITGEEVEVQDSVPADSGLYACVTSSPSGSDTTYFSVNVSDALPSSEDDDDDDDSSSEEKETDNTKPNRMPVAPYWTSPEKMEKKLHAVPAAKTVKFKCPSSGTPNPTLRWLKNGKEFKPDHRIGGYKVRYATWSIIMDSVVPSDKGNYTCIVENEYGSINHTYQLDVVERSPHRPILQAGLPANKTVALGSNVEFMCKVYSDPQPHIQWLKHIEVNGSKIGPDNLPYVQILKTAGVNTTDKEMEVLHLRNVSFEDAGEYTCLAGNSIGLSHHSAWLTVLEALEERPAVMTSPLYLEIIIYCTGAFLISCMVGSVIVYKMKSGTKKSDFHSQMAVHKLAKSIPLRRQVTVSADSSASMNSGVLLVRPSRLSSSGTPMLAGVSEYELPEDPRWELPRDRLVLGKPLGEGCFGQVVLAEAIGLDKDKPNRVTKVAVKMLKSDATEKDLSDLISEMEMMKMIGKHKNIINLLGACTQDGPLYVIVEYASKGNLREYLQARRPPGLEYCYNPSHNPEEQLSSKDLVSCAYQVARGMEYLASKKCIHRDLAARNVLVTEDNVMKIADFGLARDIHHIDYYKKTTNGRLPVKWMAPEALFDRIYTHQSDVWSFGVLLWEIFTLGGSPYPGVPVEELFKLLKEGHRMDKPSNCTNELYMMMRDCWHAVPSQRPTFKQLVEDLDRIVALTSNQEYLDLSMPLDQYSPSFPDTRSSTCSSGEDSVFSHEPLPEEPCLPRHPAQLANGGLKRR
Sequence of FGFR2 (h) (P21802 22-821): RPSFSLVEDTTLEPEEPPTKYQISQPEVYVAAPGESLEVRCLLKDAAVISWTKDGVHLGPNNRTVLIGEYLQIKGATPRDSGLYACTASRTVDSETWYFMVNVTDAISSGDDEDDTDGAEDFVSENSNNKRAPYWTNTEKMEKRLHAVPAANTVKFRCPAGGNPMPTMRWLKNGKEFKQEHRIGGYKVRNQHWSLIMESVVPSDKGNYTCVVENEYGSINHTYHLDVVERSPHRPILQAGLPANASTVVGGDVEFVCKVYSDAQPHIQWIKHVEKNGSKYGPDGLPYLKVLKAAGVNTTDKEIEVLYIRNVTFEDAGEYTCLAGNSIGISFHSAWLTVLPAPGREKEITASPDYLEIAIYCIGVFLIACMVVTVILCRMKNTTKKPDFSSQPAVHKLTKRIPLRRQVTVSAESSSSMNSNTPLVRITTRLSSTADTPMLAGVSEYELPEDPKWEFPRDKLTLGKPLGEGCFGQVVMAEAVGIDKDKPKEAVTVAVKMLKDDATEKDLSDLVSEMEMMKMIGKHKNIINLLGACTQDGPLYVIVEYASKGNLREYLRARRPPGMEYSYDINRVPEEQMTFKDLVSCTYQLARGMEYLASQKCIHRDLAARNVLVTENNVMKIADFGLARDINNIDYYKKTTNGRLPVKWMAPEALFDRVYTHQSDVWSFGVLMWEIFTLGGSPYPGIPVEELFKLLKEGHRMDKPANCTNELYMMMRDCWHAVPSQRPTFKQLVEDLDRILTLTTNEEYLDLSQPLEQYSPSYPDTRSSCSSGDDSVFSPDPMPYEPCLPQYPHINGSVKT

## COCC(O)Cn1/c(=N/c2cc(OC)cc(OC)c2F)ccc2ncc(-c3cnn(C)c3)nc21 (single isomer, unassigned) [Compound 60]
[1]
  IC50: 0.741 nM
[2]
  IC50: 1 nM
[3]
  IC50: 0.525 nM
[4]
  IC50: 0.724 nM
[5]
  IC50: 8.91 nM
[6]
  BAF3-FGFR1 (MIN IL3) pIC50: 8.43
[7]
  IC50: > 10000 nM
[8]
  BAF3-FGFR3 (MIN IL3) pIC50: 8.15
[9]
  IC50: > 10000 nM
[10]
  BAF3-FGFR4 pIC50: 7.76

## COc1cc(OC)c(F)c(N(CC(O)COC(C)C)c2ccc3ncc(-c4cnn(CC(O)COC(C)C)c4)nc3n2)c1 (single isomer, unassigned) [Compound 252]
[1]
  IC50: 1.95 nM
[2]
  IC50: 5.37 nM
[3]
  IC50: 4.07 nM
[4]
  IC50: 5.13 nM
[5]
  IC50: 49 nM
[6]
  BAF3-FGFR1 (MIN IL3) pIC50: 7.14
[7]
  IC50: > 10000 nM
[8]
  BAF3-FGFR3 (MIN IL3) pIC50: 7.42
[9]
  IC50: > 10000 nM
[10]
  BAF3-FGFR4 pIC50: 6.95

## COc1cc(OC)c(F)c(N(C)c2ccc3ncc(-c4cnn(C)c4)nc3n2)c1F (single isomer, unassigned) [Compound 254]
[1]
  IC50: 0.468 nM
[2]
  IC50: 1.05 nM
[3]
  IC50: 0.437 nM
[4]
  IC50: 1 nM
[5]
  IC50: 14.1 nM
[6]
  BAF3-FGFR1 (MIN IL3) pIC50: 7.67
[7]
  IC50: > 10000 nM
[8]
  BAF3-FGFR3 (MIN IL3) pIC50: 8.08
[9]
  IC50: > 10000 nM
[10]
  BAF3-FGFR4 pIC50: 7.15

## COc1cc(OC)c(F)c(/N=c2\ccc3ncc(-c4cnn(C)c4)nc3n2C)c1F (single isomer, unassigned) [Compound 255]
[1]
  IC50: 0.214 nM
[2]
  IC50: 0.776 nM
[3]
  IC50: 0.363 nM
[4]
  IC50: 0.513 nM
[5]
  IC50: 3.09 nM
[6]
  BAF3-FGFR1 (MIN IL3) pIC50: 7.93
[7]
  IC50: > 10000 nM
[8]
  BAF3-FGFR3 (MIN IL3) pIC50: 8.38
[9]
  IC50: > 10000 nM
[10]
  BAF3-FGFR4 pIC50: 7.34

## COc1cc(OC)c(F)c(/N=c2\ccc3ncc(-c4cnn(C)c4)nc3n2CC2CC2)c1F (single isomer, unassigned) [Compound 267]
[1]
  IC50: 0.977 nM
[2]
  IC50: 4.27 nM
[3]
  IC50: 2.4 nM
[4]
  IC50: 1.48 nM
[5]
  IC50: 12.6 nM
[6]
  BAF3-FGFR1 (MIN IL3) pIC50: 7.98
[7]
  IC50: > 10000 nM
[8]
  BAF3-FGFR3 (MIN IL3) pIC50: 8.16
[9]
  IC50: > 10000 nM
[10]
  BAF3-FGFR4 pIC50: 7.55

## COc1cc(OC)c(F)c(N(CC2CC2)c2ccc3ncc(-c4cnn(C)c4)nc3n2)c1F (single isomer, unassigned) [Compound 268]
[1]
  IC50: 0.912 nM
[2]
  IC50: 2.82 nM
[3]
  IC50: 1.86 nM
[4]
  IC50: 2.57 nM
[5]
  IC50: 12 nM
[6]
  BAF3-FGFR1 (MIN IL3) pIC50: 7.44
[7]
  IC50: > 10000 nM
[8]
  BAF3-FGFR3 (MIN IL3) pIC50: 7.74
[9]
  IC50: > 10000 nM
[10]
  BAF3-FGFR4 pIC50: 6.90

## COc1cc(OC)c(F)c(N(CC(O)c2cnn(C)c2)c2ccc3ncc(-c4cnn(C)c4)nc3n2)c1 (stereo not drawn) [Compound 244]
[1]
  IC50: 5.89 nM
[2]
  IC50: 5.01 nM
[3]
  IC50: 4.07 nM
[4]
  IC50: 16.2 nM
[5]
  IC50: 129 nM
[6]
  BAF3-FGFR1 (MIN IL3) pIC50: 6.76
[7]
  IC50: > 10000 nM
[8]
  BAF3-FGFR3 (MIN IL3) pIC50: 6.73
[9]
  IC50: > 10000 nM
[10]
  BAF3-FGFR4 pIC50: 6.11

## COc1cc(OC)c(F)c(N(CC(C)(C)O)c2ccc3ncc(-c4cnn(C)c4)nc3n2)c1 [Compound 245]
[1]
  IC50: 3.63 nM
[2]
  IC50: 4.47 nM
[3]
  IC50: 3.31 nM
[4]
  IC50: 15.8 nM
[5]
  IC50: 60.3 nM
[6]
  BAF3-FGFR1 (MIN IL3) pIC50: 6.86
[7]
  IC50: > 10000 nM
[8]
  BAF3-FGFR3 (MIN IL3) pIC50: 7.07
[9]
  IC50: > 10000 nM
[10]
  BAF3-FGFR4 pIC50: 6.34

## COc1cc(/N=c2\ccc3ncc(-c4cnn(C)c4)nc3n2CC(C)(C)O)c(F)c(OC)c1 [Compound 246]
[1]
  IC50: 0.603 nM
[2]
  IC50: 1.51 nM
[3]
  IC50: 0.794 nM
[4]
  IC50: 2.09 nM
[5]
  IC50: 7.59 nM
[6]
  BAF3-FGFR1 (MIN IL3) pIC50: 7.25
[7]
  IC50: > 10000 nM
[8]
  BAF3-FGFR3 (MIN IL3) pIC50: 7.53
[9]
  IC50: > 10000 nM
[10]
  BAF3-FGFR4 pIC50: 6.71
